The values below come from PMC8067632, “Assessment and Development of the Antifungal Agent Caspofungin for Aerosolized Pulmonary Delivery” (Pharmaceutics, 2021).

The structures appear in SMILES notation. Values after ≈ are worked out from the molar mass of the structure shown.

Common to all, as to format: cell-based
Test [1] relates to Candida albicans ATCC44858. The test can be described thus: microbe, parasite or virus in culture. Conditions: Candida albicans, ATCC44858; CLSI broth microdilution, visual, duplicate; read-out: MIC. How it is done: (§1) Antifungal potency of the test article(s) was measured using the in vitro broth microdilution assay under test conditions described by the Clinical and Laboratory Standards Institute. Minimum Inhibitory Concentration (MIC) is defined as the lowest concentration of an agent that causes a specified reduction in visible growth of the microorganism. Minimum Effective Concentration (MEC) is defined as the lowest concentration of an agent that leads to the growth of small, rounded, compact hyphal forms, as compared to the hyphal growth typically seen in the growth control well. MIC values were determined for 9 Candida spp., and MEC values were determined for filamentous fungus species (Aspergillus fumigatus and Trichophyton rubrum). Details of the test article preparations and methodologies are described in Supplementary Material S1.
(§2) Following incubation, the test plates were visually examined and wells were scored for growth or complete growth inhibition to define the MIC values. Microscopy examination was used to determine the MEC values. Each test substance was evaluated in duplicate and the results are the duplicate test values. Vehicle-control and an active reference agent were used as blank and positive controls, respectively. […]
(§3) S1. In Vitro Testing, Test Article Preparations
(§4) The 5 mg/mL stock solution was prepared as the following. The refrigerated vial was equilibrated to room temperature. Test vial was reconstituted aseptically with 10.5 mL 0.9% NaCl. The powder was dissolved completely, mixing until a clear solution was ob-tained. The final concentration was 5.0 mg/mL of caspofungin freebase. The reconstituted solution was stable for 1 hr at room temperature. The 5 mg/mL stock solution was then […]
(§5) The refrigerated vial was equilibrated to room temperature. The powder was dis-solved completely, mixing until a clear solution was obtained. Test vial was reconstituted aseptically with 1.8 mL 0.9% NaCl. The white to off-white powder was dissolved com-pletely, mixing gently until a clear solution was obtained. The final concentration was 5.0 mg/mL of caspofungin freebase. The reconstituted solution was used within 1 hr at room temperature. The 5 mg/mL stock solution was then diluted with 0.9% NaCl to prepare the […]
(§6) 1.3. Caspofungin Diacetate
(§7) The 5 mg/mL API stock solution was prepared as the following. The refrigerated vial was equilibrated to room temperature. Test vial was filled aseptically with 1.8 mL 0.9%
(§8) NaCl. The powder was dissolved completely, mixing until a clear solution was obtained.
(§9) The final concentration was 5.0 mg/mL of caspofungin freebase. The reconstituted solu-tion was used within 1 hr at room temperature. The 5 mg/mL stock solution was then […]
(§10) g compound, corresponding to 1.2 mg active compound with a correction factor of 2.40 was added 0.375 mL of water for injection to generate the 3.2 mg/mL working stock solution for testing. The 3.2 mg/mL working stock solution was 2-fold diluted seri-ally in 0.9% NaCl to prepare a total of eleven 50-fold stock solutions, concentrations rang-ing from 3.2 to 0.003 mg/mL. A 4 μL aliquot of each dilution was added to 196 μL of broth medium seeded with the organism suspension in wells of a 96 well plate (fungal cell count: 1 x 10^3 to 1 x 10^4 colony forming units per mL). The final volume was 200 μL in each […]

Test [2] has as its system Candida albicans ATCC90028 + 50%human serum. The test can be described thus: microbe, parasite or virus in culture. The note with it: Candida albicans, ATCC90028, CLSI broth microdilution, duplicate, read-out: MIC. How it is done: as §1, §2, §3, §4, §5, §6, §7, §8, §9, §10
(Broth dilution looks for growth in wells or tubes with falling amounts of substance.)

Test [3] has as its system Candida albicans ATCC90028. As to the kind of experiment: microbe, parasite or virus in culture. Conditions: Candida albicans, ATCC90028; CLSI broth microdilution, visual, duplicate; read-out: MIC. How it is done: as §1, §2, §3, §4, §5, §6, §7, §8, §9, §10
Test [4] concerns Candida albicans Azole-R (20183.073). As to the kind of experiment: microbe, parasite or virus in culture. Conditions: Candida albicans; CLSI broth microdilution, azole-resistant strain, duplicate; read-out: MIC. The method, then: as §1, §2, §3, §4, §5, §6, §7, §8, §9, §10
Test [5] has as its system Candida albicans Azole-R (20186.025). As to the kind of experiment: microbe, parasite or virus in culture. Conditions: Candida albicans. How it is done: as §1, §2, §3, §4, §5, §6, §7, §8, §9, §10
The subject of test [6] is Candida glabrata ATCC 36583. The test can be described thus: microbe, parasite or virus in culture. Conditions: Nakaseomyces glabratus, ATCC36583; CLSI broth microdilution, duplicate; read-out: MIC. The method, then:
as §1, §2, §3, §4, §5, §6, §7, §8, §9, §10

The test system of test [7] is Candida krusei ATCC 6258. The test can be described thus: microbe, parasite or virus in culture. The note with it: Pichia kudriavzevii, ATCC6258; CLSI broth microdilution, duplicate; read-out: MIC. The method, then: as §1, §2, §3, §4, §5, §6, §7, §8, §9, §10
Test [8] deals with Candida parapsilosis ATCC 22019. The test can be described thus: microbe, parasite or virus in culture. The note with it: Lodderomyces parapsilosis, ATCC22019; CLSI broth microdilution, duplicate; read-out: MIC. The method, then:
as §1, §2, §3, §4, §5, §6, §7, §8, §9, §10

The test system of test [9] is Candida tropicalis ATCC 200956. As to the kind of experiment: microbe, parasite or virus in culture. Conditions: Candida tropicalis, ATCC200956; CLSI broth microdilution, duplicate; read-out: MIC. The method, then: as §1, §2, §3, §4, §5, §6, §7, §8, §9, §10
Test [10] concerns Aspergillus fumigatus ATCC 13073. The test can be described thus: Broth microdilution MEC. Conditions: CLSI broth microdilution, microscopy, duplicate. The method, then: as §1, §2, §3, §4, §5, §6, §7, §8, §9, §10
Test [11] has as its system Aspergillus fumigatus ATCC204305. As to the kind of experiment: Broth microdilution MEC. Conditions: CLSI broth microdilution, microscopy, duplicate. How it is done:
as §1, §2, §3, §4, §5, §6, §7, §8, §9, §10

The subject of test [12] is Trichophyton rubrum ATCC 10218. The test can be described thus: Broth microdilution MEC. Conditions: CLSI broth microdilution, microscopy, duplicate. How it is done: as §1, §2, §3, §4, §5, §6, §7, §8, §9, §10

As for `C[C@@H]1[C@H](O)[C@@H](C)/C=C/C=C/C=C/C=C/C=C/C=C/C=C/[C@H](O[C@@H]2O[C@H](C)[C@@H](O)[C@H](N)[C@@H]2O)C[C@@H]2O[C@](O)(C[C@@H](O)C[C@@H](O)[C@H](O)CC[C@@H](O)C[C@@H](O)CC(=O)O[C@H]1C)C[C@H](O)[C@H]2C(=O)O` [Amphotericin B], the MIC in test [1] amounted to 0.125 µg/mL (≈ 0.135 µM); in test [2] it was 0.25 µg/mL (≈ 0.271 µM); in test [3] it was 0.125 µg/mL (≈ 0.135 µM); in test [4], 0.125 µg/mL (≈ 0.135 µM); in [5] it was 0.25 µg/mL (≈ 0.271 µM); in test [6], 0.125 µg/mL (≈ 0.135 µM). Further, the values for the MIC in test [7], in test [8] and in test [9] were 0.25 µg/mL (≈ 0.271 µM), 0.25 µg/mL (≈ 0.271 µM) and 1 µg/mL (≈ 1.08 µM), respectively. The figures for the MEC in test [10], in test [11] and in test [12] were 0.25 µg/mL, 0.5 µg/mL and 0.125 µg/mL, respectively.
